Test results: patent US20180042923A1, “COMBINATIONS COMPRISING BREXPIPRAZOLE OR A SALT THEREOF AND A SECOND DRUG FOR USE IN THE TREATMENT OF A CNS DISORDER” (priority 2011, published 2018)

How the values were obtained:
ddY male mice = experiment: Forced swimming test in mice (antidepressant action); type: in vivo
Protocol: When an antidepressant is administered in advance, the immobility time is shortened. The shortened immobility time is used as an index of an antidepressant action to be evaluated. This test method is widely used as an experimental animal model reflecting the clinical antidepressant effect.
In this test, the action of a combined use of 7-[4-(4-benzo[b]thiophen-4-yl-piperazin-1-yl)butoxy]-1H-quinolin-2-one (Compound (I)) and 9 kinds of antidepressants (serotonin reuptake inhibitors, or serotonin and norepinephrine reuptake inhibitors) on the immobility time was compared.
As the animal, ddY male mice (5 to 6-week-old) were used. Various antidepressants and Compound (I) or each vehicle were administered to the mice before the start of the test, the mice were placed in a cylindrical water tank, and immobility time during 2 min to 4 min after the start of swimming was measured by a behavior analysis apparatus with an infrared sensor (SCANET; Melquest Co., Ltd.).
Compound (I) was dissolved in 1% lactic acid-physiological saline, and various antidepressants were suspended or dissolved in 5% gum arabic-distilled water and used. Various antidepressants (fluoxetine (75 mg/kg), escitalopram (60 mg/kg), paroxetine (10 mg/kg), sertraline (15 mg/kg), venlafaxine (15 mg/kg), milnacipran (30 mg/kg), fluvoxamine (75 mg/kg)) were orally administered 60 min before the start of the test, duloxetine (20 mg/kg) and desvenlafaxine (20 mg/kg) were orally administered 30 min before the start of the test, and Compound (I) (0.001 or 0.003 mg/kg) was intraperitoneally administered 15 min before the start of the test.

male ddY mice = experiment: Mouse marble-burying behavior test; type: in vivo; details: Compound (I) 0.1 mg/kg p.o., 30 min before test, n=10
Source text: Marble-burying behavior test is a behavioral evaluation test utilizing the behavior of a mouse to bury marbles on the bedding. Since this characteristic behavior of burying harmless glass marbles in the bedding reflects the anxiety state of the animal, and is apparently similar to a compulsive act of obsessive-compulsive disorder patient, which is repeated with the recognition of irrationality, it is particularly considered a model of obsessive-compulsive disorder^1),2),3),4).
As the animal, male ddY mice (6- to 7-week-old) were used. In the test, a plastic cage (26×32×17 cm) was filled with chips to about 5 cm deep in a soundproof room, and 25 marbles (diameter 15 mm, weight about 6 g) were placed thereon at equal distances. Each mouse was orally administered with Compound (I) simultaneously with an antianxiety drug or an antidepressant or a vehicle thereof, and 30 min later, each mouse was placed in a cage containing the marbles. 30 min later, the animal was taken out from the cage, and the number of marbles covered with chips by ⅔ or more was visually counted.
Compound (I) (0.1 mg/kg) and various antidepressants (fluoxetine (10 mg/kg), paroxetine (10 mg/kg), sertraline (10 mg/kg), fluvoxamine (15 mg/kg)) were suspended in 5% gum arable-distilled water, and diazepam (antianxiety drug, 1 mg/kg) was diluted with physiological saline and used. All drugs and vehicles thereof were orally administered 30 min before the start of the test.

[1] = Compound (I) 0.001 mg/kg i.p. 15 min before test, venlafaxine 15 mg/kg p.o. 60 min before, n=10
[2] = Compound (I) 0.003 mg/kg i.p. 15 min before test, desvenlafaxin 20 mg/kg p.o. 30 min before, n=8
[3] = Compound (I) 0.003 mg/kg i.p. 15 min before test, duloxetine 20 mg/kg p.o. 30 min before, n=7
[4] = Compound (I) 0.003 mg/kg i.p. 15 min before test, escitalopram 60 mg/kg p.o. 60 min before, n=10
[5] = Compound (I) 0.003 mg/kg i.p. 15 min before test, fluoxetine 75 mg/kg p.o. 60 min before, n=10
[6] = Compound (I) 0.003 mg/kg i.p. 15 min before test, fluvoxamine 75 mg/kg p.o. 60 min before, n=10
[7] = Compound (I) 0.003 mg/kg i.p. 15 min before test, milnacipran 30 mg/kg p.o. 60 min before, n=10
[8] = Compound (I) 0.003 mg/kg i.p. 15 min before test, paroxetine 10 mg/kg p.o. 60 min before, n=10
[9] = Compound (I) 0.003 mg/kg i.p. 15 min before test, sertraline 15 mg/kg p.o. 60 min before, n=7

With `O=c1ccc2ccc(OCCCCN3CCN(c4cccc5sccc45)CC3)cc2[nH]1` [Compound (I), 7-[4-(4-benzo[b]thiophen-4-yl-piperazin-1-yl)butoxy]-1H-quinolin-2-one] the “immobility time relative to control (%)” value (ddY male mice; [1]) was 99%, the “immobility time relative to control (%)” value (ddY male mice; [2]) was 96% and the “immobility time relative to control (%)” value (ddY male mice; [3]) was 98%. The “immobility time relative to control (%)” value (ddY male mice; [4]) was 96%, the “immobility time relative to control (%)” value (ddY male mice; [5]) was 100% and the “immobility time relative to control (%)” value (ddY male mice; [6]) was 100%. The “immobility time relative to control (%)” value (ddY male mice; [7]) was 101%, the “immobility time relative to control (%)” value (ddY male mice; [8]) was 98% and the “immobility time relative to control (%)” value (ddY male mice; [9]) was 87%. For the same compound, the “number of marbles buried (average ± standard error)” value (from here on “number … (average ± standard error)”) (male ddY mice; diazepam 1 mg/kg p.o.) was 14.4 ± 2.0, the “number of marbles buried relative to control (%)” value (male ddY mice; diazepam 1 mg/kg p.o.) was 96% and the “number … (average ± standard error)” value (male ddY mice; fluoxetine 10 mg/kg p.o.) was 14.4 ± 2.0. For the same compound, the “number of marbles buried relative to control (%)” value (male ddY mice; fluoxetine 10 mg/kg p.o.) was 82%, the “number … (average ± standard error)” value (male ddY mice; fluvoxamine 15 mg/kg p.o.) was 14.0 ± 1.6 and the “number of marbles buried relative to control (%)” value (male ddY mice; fluvoxamine 15 mg/kg p.o.) was 86%. The “number … (average ± standard error)” value (male ddY mice; paroxetine 10 mg/kg p.o.) was 11.3 ± 1.5, the “number of marbles buried relative to control (%)” value (male ddY mice; paroxetine 10 mg/kg p.o.) was 90% and the “number … (average ± standard error)” value (male ddY mice; sertraline 10 mg/kg p.o.) was 12.2 ± 2.2. The “number of marbles buried relative to control (%)” value (male ddY mice; sertraline 10 mg/kg p.o.) was 91%.

`CN(C)CC(c1ccc(O)cc1)C1(O)CCCCC1` (centres unmarked) [desvenlafaxin, desvenlafaxine] was tested, and the “immobility time relative to control (%)” value (ddY male mice; [2]) was 95%.

With `CN1C(=O)CN=C(c2ccccc2)c2cc(Cl)ccc21` [diazepam] the “number … (average ± standard error)” value (male ddY mice; diazepam 1 mg/kg p.o.) was 12.8 ± 2.0 and the “number of marbles buried relative to control (%)” value (male ddY mice; diazepam 1 mg/kg p.o.) was 85%.

With `CNCC[C@H](Oc1cccc2ccccc12)c1cccs1` [duloxetine] the “immobility time relative to control (%)” value (ddY male mice; [3]) was 95%.

For `CN(C)CCC[C@@]1(c2ccc(F)cc2)OCc2cc(C#N)ccc21` [escitalopram], the “immobility time relative to control (%)” value (ddY male mice; [4]) was 95%.

In the case of `CNCCC(Oc1ccc(C(F)(F)F)cc1)c1ccccc1` (centres unmarked) [fluoxetine], the “immobility time relative to control (%)” value (ddY male mice; [5]) is reported as 92%, the “number … (average ± standard error)” value (male ddY mice; fluoxetine 10 mg/kg p.o.) is reported as 17.3 ± 1.5 and the “number of marbles buried relative to control (%)” value (male ddY mice; fluoxetine 10 mg/kg p.o.) is reported as 98%.

With `COCCCC/C(=N\OCCN)c1ccc(C(F)(F)F)cc1` [fluvoxamine] the “immobility time relative to control (%)” value (ddY male mice; [6]) was 95%, the “number … (average ± standard error)” value (male ddY mice; fluvoxamine 15 mg/kg p.o.) was 13.5 ± 2.1 and the “number of marbles buried relative to control (%)” value (male ddY mice; fluvoxamine 15 mg/kg p.o.) was 83%.

`CCN(CC)C(=O)C1(c2ccccc2)CC1CN` (centres unmarked) [milnacipran] was tested, and the “immobility time relative to control (%)” value (ddY male mice; [7]) was 97%.

For `Fc1ccc([C@@H]2CCNC[C@H]2COc2ccc3c(c2)OCO3)cc1` [paroxetine], the “immobility time relative to control (%)” value (ddY male mice; [8]) was 98%, the “number … (average ± standard error)” value (male ddY mice; paroxetine 10 mg/kg p.o.) was 8.5 ± 2.0 and the “number of marbles buried relative to control (%)” value (male ddY mice; paroxetine 10 mg/kg p.o.) was 60%.

In the case of `CN[C@H]1CC[C@@H](c2ccc(Cl)c(Cl)c2)c2ccccc21` [sertraline], the “immobility time relative to control (%)” value (ddY male mice; [9]) is reported as 91%, the “number … (average ± standard error)” value (male ddY mice; sertraline 10 mg/kg p.o.) is reported as 7.5 ± 0.7 and the “number of marbles buried relative to control (%)” value (male ddY mice; sertraline 10 mg/kg p.o.) is reported as 56%.

`COc1ccc(C(CN(C)C)C2(O)CCCCC2)cc1` (centres unmarked) [venlafaxine] was tested, and the “immobility time relative to control (%)” value (ddY male mice; [1]) was 96%.
